Measured values taken from ChEMBL document CHEMBL5465560, “Selectivity Literature for EUbOPEN Chemogenomic Library” (2024).

How the values were obtained:
[1] = target: Tyrosine-protein kinase CSK (Homo sapiens) (UniProt P41240); details: at 10 µM
[2] = target: T1, Serine/threonine-protein kinase TAO3 (Homo sapiens) (UniProt Q9H2K8); experiment: Selectivity interaction (KinomeScan (DiscoverX)) EUB0001049a TAOK3; details: at 1 µM
T1 sequence (whole entry): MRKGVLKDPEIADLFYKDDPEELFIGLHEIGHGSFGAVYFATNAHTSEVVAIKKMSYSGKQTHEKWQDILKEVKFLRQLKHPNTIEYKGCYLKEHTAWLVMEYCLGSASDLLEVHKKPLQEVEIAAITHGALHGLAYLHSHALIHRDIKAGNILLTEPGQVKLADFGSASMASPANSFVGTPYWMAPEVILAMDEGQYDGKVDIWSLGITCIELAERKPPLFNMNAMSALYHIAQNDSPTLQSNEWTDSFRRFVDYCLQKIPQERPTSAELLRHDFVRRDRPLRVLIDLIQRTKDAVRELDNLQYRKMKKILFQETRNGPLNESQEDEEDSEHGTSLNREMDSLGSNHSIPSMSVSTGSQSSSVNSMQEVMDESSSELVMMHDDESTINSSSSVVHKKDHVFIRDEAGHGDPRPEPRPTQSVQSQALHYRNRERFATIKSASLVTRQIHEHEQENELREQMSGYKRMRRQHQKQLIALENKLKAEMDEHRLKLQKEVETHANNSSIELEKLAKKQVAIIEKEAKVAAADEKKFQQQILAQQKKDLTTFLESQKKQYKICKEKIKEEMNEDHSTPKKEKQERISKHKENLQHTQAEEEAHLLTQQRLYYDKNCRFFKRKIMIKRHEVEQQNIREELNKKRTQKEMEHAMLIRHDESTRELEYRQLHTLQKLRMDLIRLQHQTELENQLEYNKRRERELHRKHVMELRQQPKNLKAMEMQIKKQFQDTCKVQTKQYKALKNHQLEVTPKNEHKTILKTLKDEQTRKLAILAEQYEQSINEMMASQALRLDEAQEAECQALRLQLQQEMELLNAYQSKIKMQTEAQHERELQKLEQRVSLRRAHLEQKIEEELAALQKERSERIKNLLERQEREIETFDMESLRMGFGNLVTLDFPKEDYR

[3] = target: Tyrosine-protein kinase Fer (Homo sapiens) (UniProt P16591); experiment: Selectivity interaction (Ambit KINOMEscan and KiNATiv profiling in Jurkat cells) EUB0000090b FER; format: cell-based; details: at 1 µM
Tyrosine-protein kinase Fer (Homo sapiens), sequence (P16591 whole entry, looked up): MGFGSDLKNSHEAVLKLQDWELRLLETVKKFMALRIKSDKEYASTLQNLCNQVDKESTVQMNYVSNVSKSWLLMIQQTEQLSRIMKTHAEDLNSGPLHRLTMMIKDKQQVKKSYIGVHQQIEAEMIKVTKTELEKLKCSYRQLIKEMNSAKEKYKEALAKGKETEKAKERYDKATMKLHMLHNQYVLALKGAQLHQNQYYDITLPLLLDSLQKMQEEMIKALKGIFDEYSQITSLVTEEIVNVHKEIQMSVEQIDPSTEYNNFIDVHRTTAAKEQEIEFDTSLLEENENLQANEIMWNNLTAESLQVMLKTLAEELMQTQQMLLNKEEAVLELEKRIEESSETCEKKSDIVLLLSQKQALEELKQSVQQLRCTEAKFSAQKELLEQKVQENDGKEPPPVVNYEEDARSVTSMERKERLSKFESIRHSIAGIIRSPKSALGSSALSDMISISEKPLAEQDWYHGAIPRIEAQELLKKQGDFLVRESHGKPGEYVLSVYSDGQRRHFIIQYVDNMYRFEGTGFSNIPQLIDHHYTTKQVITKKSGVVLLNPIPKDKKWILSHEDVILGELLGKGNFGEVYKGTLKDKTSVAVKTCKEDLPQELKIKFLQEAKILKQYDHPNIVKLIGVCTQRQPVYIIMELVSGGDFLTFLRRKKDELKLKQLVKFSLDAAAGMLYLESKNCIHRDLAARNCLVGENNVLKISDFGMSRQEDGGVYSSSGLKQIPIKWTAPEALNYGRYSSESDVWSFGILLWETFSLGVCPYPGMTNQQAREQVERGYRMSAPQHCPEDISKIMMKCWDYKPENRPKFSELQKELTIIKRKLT

[4] = target: T2, Protein kinase C iota type (Homo sapiens) (UniProt P41743); experiment: Selectivity interaction (KinomeScan (DiscoverX)) EUB0001079a PRKCI; details: at 1 µM
T2 sequence (whole entry): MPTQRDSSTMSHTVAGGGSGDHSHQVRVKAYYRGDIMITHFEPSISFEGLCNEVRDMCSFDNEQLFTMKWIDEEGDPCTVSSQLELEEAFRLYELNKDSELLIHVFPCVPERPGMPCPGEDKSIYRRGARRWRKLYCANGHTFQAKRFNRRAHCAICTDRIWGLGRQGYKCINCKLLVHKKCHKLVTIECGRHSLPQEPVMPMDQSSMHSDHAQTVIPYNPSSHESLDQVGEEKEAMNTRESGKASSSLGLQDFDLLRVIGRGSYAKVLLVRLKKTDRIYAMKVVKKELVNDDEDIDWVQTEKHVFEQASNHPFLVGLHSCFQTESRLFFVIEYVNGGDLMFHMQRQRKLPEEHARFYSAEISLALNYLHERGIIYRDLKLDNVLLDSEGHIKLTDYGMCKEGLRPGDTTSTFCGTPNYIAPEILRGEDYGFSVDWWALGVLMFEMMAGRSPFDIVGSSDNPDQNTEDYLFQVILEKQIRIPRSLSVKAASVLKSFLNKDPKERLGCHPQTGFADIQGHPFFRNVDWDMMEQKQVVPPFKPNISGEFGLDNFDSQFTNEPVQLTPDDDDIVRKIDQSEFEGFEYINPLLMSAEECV

[5] = target: Myosin-IIIa (Homo sapiens) (UniProt Q8NEV4); experiment: Selectivity interaction (KinomeScan (DiscoverX)) EUB0001079a MYO3A; details: at 1 µM
Myosin-IIIa (Homo sapiens), sequence (Q8NEV4 whole entry, the tested form may be a part): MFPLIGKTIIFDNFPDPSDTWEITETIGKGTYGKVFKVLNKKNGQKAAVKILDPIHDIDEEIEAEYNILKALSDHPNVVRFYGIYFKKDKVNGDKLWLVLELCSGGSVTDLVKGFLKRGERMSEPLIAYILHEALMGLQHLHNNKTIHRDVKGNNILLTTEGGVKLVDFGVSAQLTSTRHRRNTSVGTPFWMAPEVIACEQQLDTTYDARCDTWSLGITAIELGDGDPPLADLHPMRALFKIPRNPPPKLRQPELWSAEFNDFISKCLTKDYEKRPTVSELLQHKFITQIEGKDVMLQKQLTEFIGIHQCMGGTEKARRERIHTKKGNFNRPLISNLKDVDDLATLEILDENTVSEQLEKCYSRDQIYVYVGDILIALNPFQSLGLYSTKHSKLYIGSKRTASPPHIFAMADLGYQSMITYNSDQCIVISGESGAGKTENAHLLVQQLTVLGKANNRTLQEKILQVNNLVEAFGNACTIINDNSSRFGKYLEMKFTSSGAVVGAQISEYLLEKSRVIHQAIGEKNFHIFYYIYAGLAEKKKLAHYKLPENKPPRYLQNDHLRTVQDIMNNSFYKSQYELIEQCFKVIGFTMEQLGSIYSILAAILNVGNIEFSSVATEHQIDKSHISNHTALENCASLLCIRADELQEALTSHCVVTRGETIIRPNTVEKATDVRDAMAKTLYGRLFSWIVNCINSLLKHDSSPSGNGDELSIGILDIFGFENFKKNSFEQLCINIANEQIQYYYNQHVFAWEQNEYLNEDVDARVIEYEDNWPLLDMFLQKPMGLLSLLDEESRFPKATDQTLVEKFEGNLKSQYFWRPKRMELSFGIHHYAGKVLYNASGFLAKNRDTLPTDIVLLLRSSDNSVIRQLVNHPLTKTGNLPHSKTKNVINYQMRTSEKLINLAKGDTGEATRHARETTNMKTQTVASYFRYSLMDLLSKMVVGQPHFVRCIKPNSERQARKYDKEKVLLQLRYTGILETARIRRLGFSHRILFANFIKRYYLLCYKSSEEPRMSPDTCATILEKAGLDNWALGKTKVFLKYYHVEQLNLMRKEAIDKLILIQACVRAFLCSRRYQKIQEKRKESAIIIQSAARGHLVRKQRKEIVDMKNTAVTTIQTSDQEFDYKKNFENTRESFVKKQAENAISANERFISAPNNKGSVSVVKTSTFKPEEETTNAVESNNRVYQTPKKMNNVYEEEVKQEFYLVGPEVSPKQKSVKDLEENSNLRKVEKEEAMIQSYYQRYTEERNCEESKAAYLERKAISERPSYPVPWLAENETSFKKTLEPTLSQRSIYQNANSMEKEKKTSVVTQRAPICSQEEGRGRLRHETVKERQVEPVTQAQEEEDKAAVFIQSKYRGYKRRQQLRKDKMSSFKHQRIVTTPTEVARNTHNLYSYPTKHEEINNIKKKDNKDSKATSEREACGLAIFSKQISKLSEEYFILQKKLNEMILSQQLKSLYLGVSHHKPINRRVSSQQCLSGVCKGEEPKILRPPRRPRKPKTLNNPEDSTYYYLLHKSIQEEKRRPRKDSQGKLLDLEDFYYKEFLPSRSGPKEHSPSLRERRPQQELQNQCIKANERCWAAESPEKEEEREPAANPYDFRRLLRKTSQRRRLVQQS

[6] = target: Epithelial discoidin domain-containing receptor 1 (Homo sapiens) (UniProt Q08345); experiment: Selectivity interaction (KinomeScan (DiscoverX)) EUB0000655a DDR1; details: at 10 µM
Epithelial discoidin domain-containing receptor 1 (Homo sapiens), sequence (Q08345 whole entry, the tested form may be a part): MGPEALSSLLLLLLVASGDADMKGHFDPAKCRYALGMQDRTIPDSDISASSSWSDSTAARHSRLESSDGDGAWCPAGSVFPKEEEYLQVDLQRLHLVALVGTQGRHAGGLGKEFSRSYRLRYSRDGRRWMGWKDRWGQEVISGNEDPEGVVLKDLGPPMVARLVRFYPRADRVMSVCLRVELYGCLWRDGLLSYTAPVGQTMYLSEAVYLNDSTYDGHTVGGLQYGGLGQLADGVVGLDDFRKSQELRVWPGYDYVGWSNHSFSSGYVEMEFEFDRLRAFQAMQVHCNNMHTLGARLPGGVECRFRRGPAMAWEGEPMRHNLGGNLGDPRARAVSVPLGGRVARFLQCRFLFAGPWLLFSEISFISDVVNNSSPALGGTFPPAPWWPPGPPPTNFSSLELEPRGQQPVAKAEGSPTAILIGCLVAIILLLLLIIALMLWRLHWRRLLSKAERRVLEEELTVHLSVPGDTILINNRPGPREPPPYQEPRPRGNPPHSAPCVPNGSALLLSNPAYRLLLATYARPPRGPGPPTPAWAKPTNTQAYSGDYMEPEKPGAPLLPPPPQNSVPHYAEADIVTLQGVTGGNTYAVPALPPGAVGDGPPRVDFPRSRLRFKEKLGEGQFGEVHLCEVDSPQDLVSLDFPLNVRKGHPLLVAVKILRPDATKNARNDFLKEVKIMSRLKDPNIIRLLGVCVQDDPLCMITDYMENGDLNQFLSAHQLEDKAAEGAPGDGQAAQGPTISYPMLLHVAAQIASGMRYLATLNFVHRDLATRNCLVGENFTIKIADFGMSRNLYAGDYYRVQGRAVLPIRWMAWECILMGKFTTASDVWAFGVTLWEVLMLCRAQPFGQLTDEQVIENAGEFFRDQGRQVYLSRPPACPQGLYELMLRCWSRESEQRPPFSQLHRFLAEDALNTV

[7] = target: T3, Serine/threonine-protein kinase greatwall (Homo sapiens) (UniProt Q96GX5); experiment: Selectivity interaction (Kinase panel (KiNativ target engagement assay in Jurkat cells)) EUB0001635a MASTL; format: cell-based; details: at 1 µM
T3 sequence (whole entry): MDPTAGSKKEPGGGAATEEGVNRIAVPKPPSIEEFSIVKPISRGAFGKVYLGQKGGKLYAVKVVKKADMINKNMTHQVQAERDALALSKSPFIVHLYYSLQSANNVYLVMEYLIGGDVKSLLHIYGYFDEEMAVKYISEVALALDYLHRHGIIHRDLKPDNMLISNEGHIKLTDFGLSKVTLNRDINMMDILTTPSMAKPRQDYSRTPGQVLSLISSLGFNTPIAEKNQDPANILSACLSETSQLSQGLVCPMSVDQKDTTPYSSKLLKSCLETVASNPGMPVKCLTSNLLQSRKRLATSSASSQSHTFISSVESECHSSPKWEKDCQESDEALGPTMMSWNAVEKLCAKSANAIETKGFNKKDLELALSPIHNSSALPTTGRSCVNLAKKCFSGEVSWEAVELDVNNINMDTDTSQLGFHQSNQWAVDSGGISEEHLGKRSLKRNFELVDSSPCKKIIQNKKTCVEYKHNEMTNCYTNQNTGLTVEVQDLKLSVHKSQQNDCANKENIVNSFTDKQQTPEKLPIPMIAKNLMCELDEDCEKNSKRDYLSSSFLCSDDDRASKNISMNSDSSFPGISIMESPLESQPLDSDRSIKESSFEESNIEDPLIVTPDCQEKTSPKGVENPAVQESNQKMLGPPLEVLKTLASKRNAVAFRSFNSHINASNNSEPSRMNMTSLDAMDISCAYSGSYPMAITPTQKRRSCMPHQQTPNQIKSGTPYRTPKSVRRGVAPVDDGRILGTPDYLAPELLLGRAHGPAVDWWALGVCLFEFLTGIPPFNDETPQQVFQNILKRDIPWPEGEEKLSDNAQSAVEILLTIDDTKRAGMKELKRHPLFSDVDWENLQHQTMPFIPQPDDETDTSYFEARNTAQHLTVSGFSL

Tyrosine-protein kinase CSK (Homo sapiens), sequence (P41240 2-450 limits assumed): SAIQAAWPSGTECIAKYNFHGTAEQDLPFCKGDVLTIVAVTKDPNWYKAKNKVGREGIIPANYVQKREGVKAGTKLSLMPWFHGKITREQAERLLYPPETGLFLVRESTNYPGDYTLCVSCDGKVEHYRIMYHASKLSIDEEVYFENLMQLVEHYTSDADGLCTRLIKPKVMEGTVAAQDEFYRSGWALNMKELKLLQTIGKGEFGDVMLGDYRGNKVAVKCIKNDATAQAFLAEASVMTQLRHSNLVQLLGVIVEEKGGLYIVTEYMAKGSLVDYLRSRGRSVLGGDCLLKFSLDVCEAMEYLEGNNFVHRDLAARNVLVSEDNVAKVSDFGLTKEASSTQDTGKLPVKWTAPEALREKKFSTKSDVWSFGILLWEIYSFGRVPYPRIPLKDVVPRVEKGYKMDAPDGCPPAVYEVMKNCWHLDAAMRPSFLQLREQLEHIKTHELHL

Cc1cc([C@@H](C)Nc2ccccc2C(=O)O)c2nc(N3CCOCC3)cc(=O)n2c1 [AZD-6482]
% of control [1]: 100%

COc1cc(Nc2nc(C)cc(-c3cnn4nc(OC)ccc34)n2)cc(C(F)(F)F)c1
% of control [2]: 75%

CN(C)C/C=C/C(=O)Nc1ccc(C(=O)N2CCCC(Nc3ncc(Cl)c(-c4c[nH]c5ccccc45)n3)C2)cc1 (configuration not stated)
% of control [3]: 82%

Nc1cnc(N2CCc3cc(S(=O)(=O)Nc4c(F)cc(Cl)cc4F)cc(N4CCCC4=O)c32)nc1 [TP-020n]
% of control [4]: 100%
% of control [5]: 77%

CN(C)CCOc1ccc(-c2nc(-c3ccncc3)c(-c3ccc4c(c3)CC/C4=N\O)[nH]2)cc1
% of control [6]: 43%

C=CC(=O)Nc1ccc(C(=O)Nc2[nH]nc3c2CN(C(=O)N[C@H](CN(C)C)c2ccccc2)C3(C)C)cc1
% of engagement [7]: 6.7%
